Each compound was assayed against T1, human PAD4 (Homo sapiens, UniProt Q9UM07) (assay: In vitro PAD4 BAEE biochemical assay). Conditions: BAEE substrate 3 mM, 5 nM PAD4, 2 mM calcium chloride; geometric mean of multiple experiments.
T1 construct: human PAD4 (NM_012387), A2-P663, was PCR amplified; His-SUMO (N, cleaved yes); made in house; host or cells: E. coli BL21(DE3)
T1 sequence (Q9UM07 2-663): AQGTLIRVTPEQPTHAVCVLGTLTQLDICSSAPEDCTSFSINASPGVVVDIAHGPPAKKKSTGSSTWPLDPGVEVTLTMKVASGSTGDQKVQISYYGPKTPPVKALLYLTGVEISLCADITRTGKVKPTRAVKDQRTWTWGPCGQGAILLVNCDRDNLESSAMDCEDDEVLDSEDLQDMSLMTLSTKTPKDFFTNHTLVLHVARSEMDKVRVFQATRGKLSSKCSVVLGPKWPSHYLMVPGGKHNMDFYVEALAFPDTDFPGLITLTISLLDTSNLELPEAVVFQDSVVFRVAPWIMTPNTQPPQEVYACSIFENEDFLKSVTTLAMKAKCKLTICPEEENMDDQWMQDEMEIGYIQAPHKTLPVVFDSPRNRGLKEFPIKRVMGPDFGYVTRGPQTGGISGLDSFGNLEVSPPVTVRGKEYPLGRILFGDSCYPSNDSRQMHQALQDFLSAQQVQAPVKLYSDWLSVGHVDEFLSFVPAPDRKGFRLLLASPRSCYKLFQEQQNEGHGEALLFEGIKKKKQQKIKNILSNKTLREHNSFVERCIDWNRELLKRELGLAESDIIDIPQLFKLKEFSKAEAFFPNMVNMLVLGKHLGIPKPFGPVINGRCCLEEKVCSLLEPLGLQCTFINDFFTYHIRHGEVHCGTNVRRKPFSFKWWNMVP
Outline: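 Recombinant human PAD4 (5 nM final) with 2 mM CaCl2 was preincubated with compound 30 min at 25 °C in MOPS buffer pH 7.6, then reacted with 3 mM BAEE for 2 h at 25 °C. After EDTA stop, released ammonia was detected by o-phthalaldehyde/DTT fluorescence (ex 405/em 535 nm); IC50 from four-parameter fit, geometric mean.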
With `COc1cc(C(=O)N2CCC[C@@H](N)C2)cc2nc(-c3cc4ccc5nc4n3CCCCCCCC(=O)NC5C(F)F)n(C)c12` (stereo partly shown) [Example 238, 17-[5-[(3~{R})-3-aminopiperidine-1-carbonyl]-7-methoxy-1-methyl-benzimidazol-2-yl]-11-(difluoromethyl)-1,10,19-triazatricyclo[10.5.2.0^{15,18}]nonadeca-12(19),13,15(18),16-tetraen-9-one] the IC50 was 87 nM. In the case of `COc1cc(C(=O)N2CC[C@@H](OC)[C@@H](N)C2)cc2nc(-c3cc4ccc5nc4n3Cc3ccccc3C/C=C/CC(=O)N[C@@H]5C)n(C)c12` [Example 239, (10~{E},15~{R})-21-[5-[(3~{S},4~{R})-3-amino-4-methoxy-piperidine-1-carbonyl]-7-methoxy-1-methyl-benzimidazol-2-yl]-15-methyl-1,14,23-triazatetracyclo[14.5.2.0^{3,8}.0^{19,22}] tricosa-3(8),4,6,10,16,18,20,22-octaen-13-one], the IC50 is reported as 583 nM. For `COc1cc(C(=O)N2CC[C@@H](OC)[C@@H](N)C2)cc2nc(-c3cc4ccc5nc4n3CCCCCc3nccnc3C(=O)N[C@@H]5C)n(C)c12` [Example 240, (2~{R})-17-[5-[(3~{S),4~{R})-3-amino-4-methoxy-piperidine-1-carbonyl]-7-methoxy-1-methyl-benzimidazol-2-yl]-2-methyl-3,6,9,16,22-pentazatetracyclo[14.5.2.0^{5,10}.0^{19, 23}]tricosa-1(21),5(10),6,8,17,19,22-heptaen-4-one], the IC50 was 137 nM. With `COc1cc(C(=O)N[C@H]2CNCC[C@@H]2F)cc2nc(-c3cc4ccc5nc4n3CCCCCc3nccnc3C(=O)N[C@@H]5C)n(C)c12` [Example 241, ~{N}-[(3~{S},4~{S})-4-fluoro-3-piperidyl]-7-methoxy-1-methyl-2-[(2~{R})-2-methyl-4-oxo-3,6,9,16,22-pentazatetracyclo[14.5.2.0^{5,10}.0^{19, 23}]tricosa-1(21),5(10),6,8,17,19,22-heptaen-17-yl]benzimidazole-5-carboxamide] the IC50 was 82 nM. For `C[C@H]1NC(=O)[C@@H]2C[C@H]2CCCCCn2c(-c3nc4cc(C(=O)N[C@H]5CNCC[C@@H]5F)c(F)cc4n3C)cc3ccc1nc32` [Example 242, 6-fluoro-~{N}-[(3~{S},4~{S})-4-fluoro-3-piperidyl]-1-methyl-2-[(2~{R},5~{R},7~{R})-2-methyl-4-oxo-3,13,19-triazatetracyclo[11.5.2.0^{5,7}.0^{16,20}]icosa-1(19),14,16(20),17-tetraen-14-yl]benzimidazole-5-carboxamide], the IC50 was 31 nM. Compound `C[C@H]1NC(=O)c2nccnc2CCCCCn2c(-c3nc4cc(C(=O)N[C@H]5CNCC[C@@H]5F)c(F)cc4n3C3CC3)cc3ccc1nc32` [Example 243, 1-cyclopropyl-6-fluoro-~{N}-[(3~{S},4~{S})-4-fluoro-3-piperidyl]-2-[(2~{R})-2-methyl-4-oxo-3,6,9,16,22-pentazatetracyclo[14.5.2.0^{5,10}.0^{19, 23}]tricosa-1(21),5(10),6,8,17,19,22-heptaen-17-yl]benzimidazole-5-carboxamide] has an IC50 of 68 nM. `COc1cc(C(=O)N[C@H]2CNCC[C@@H]2O)cc2nc(-c3cc4ccc5nc4n3CCCCCCC(C)(C)C(=O)N[C@@H]5C)n(C)c12` [Example 244, ~{N}-[(3~{S},4~{S})-4-hydroxy-3-piperidyl]-7-methoxy-1-methyl-2-[(11~{R})-8,8,11-trimethyl-9-oxo-1,10,19-triazatricyclo[10.5.2.0^{15,18}]nonadeca-12(19),13,15(18),16-tetraen-17-yl]benzimidazole-5-carboxamide] gave an IC50 of 2580 nM. In the case of `COc1cc(C(=O)N2[C@H]3CC[C@@H]2[C@H](N)C3)cc2nc(-c3cc4ccc5nc4n3CCCCCOCC(=O)N[C@@H]5C)c(C)n12` [Example 247, (11~{R})-17-[7-[(1~{R},2~{R},4~{S})-2-amino-7-azabicyclo[2.2.1]heptane-7-carbonyl]-5-methoxy-3-methyl-imidazo[1,2-a]pyridin-2-yl]-11-methyl-7-oxa-1,10,19-triazatricyclo[10.5.2.0^{15,18}]nonadeca-12(19),13,15(18),16-tetraen-9-one], the IC50 is reported as 18 nM. For `COc1cc(C(=O)N2[C@H]3CC[C@@H]2[C@H](N)C3)cc2nc(-c3cc4ccc5nc4n3CCCCCCOCC(=O)N[C@@H]5C)c(C)n12` [Example 248, (12~{R})-18-[7-[(1~{R},2~{R},4~{S})-2-amino-7-azabicyclo[2.2.1]heptane-7-carbonyl]-5-methoxy-3-methyl-imidazo[1,2-a]pyridin-2-yl]-12-methyl-8-oxa-1,11,20-triazatricyclo[11.5.2.0^{16,19}]icosa-13(20),14,16(19),17-tetraen-10-one], the IC50 was 44 nM. In the case of `C[C@H]1NC(=O)CCCCCCCn2c(-c3nc4cc(C(=O)N5[C@H]6CC[C@@H]5[C@H](N)C6)ccn4c3C3CC3)cc3ccc1nc32` [Example 249, (11~{R})-17-[7-[(1~{R},2~{R},4~{S})-2-amino-7-azabicyclo[2.2.1]heptane-7-carbonyl]-3-cyclopropyl-imidazo[1,2-a]pyridin-2-yl]-11-methyl-1,10,19-triazatricyclo[10.5.2.0^{15,18}]nonadeca-12(19),13,15(18),16-tetraen-9-one], the IC50 is reported as 51 nM. `COc1cc(C(=O)N2[C@H]3CC[C@@H]2[C@H](N)C3)cc2nc(-c3cc4ccc5nc4n3CCCCCCCC(=O)N[C@@H]5C)n(C3CC3)c12` [Example 250, (11~{R})-17-[5-[(1~{R},2~{R},4~{S})-2-amino-7-azabicyclo[2.2.1]heptane-7-carbonyl]-1-cyclopropyl-7-methoxy-benzimidazol-2-yl]-11-methyl-1,10,19-triazatricyclo[10.5.2.0^{15,18}]nonadeca-12(19),13,15(18),16-tetraen-9-one] was tested, and the IC50 was 44 nM. In the case of `COc1cc(C(=O)N2[C@H]3CC[C@@H]2[C@H](N)C3)cc2nc(-c3cc4ccc5nc4n3CCCCCCCC(=O)NC5(C)C)n(C)c12` [Example 251, 17-[5-[(1~{R},2~{R},4~{S})-2-amino-7-azabicyclo[2.2.1]heptane-7-carbonyl]-7-methoxy-1-methyl-benzimidazol-2-yl]-11,11-dimethyl-1,10,19-triazatricyclo[10.5.2.0^{15,18}]nonadeca-12(19),13,15(18),16-tetraen-9-one], the IC50 is reported as 74 nM. `CCc1c(-c2cc3ccc4nc3n2CCCCCCCC(=O)N[C@@H]4C)nn2cc(C(=O)N3[C@H]4CC[C@@H]3[C@H](N)C4)ccc12` [Example 252, 17-[5-[(1˜{R},2˜{R},4˜{S})-2-amino-7-azabicyclo[2.2.1]heptane-7-carbonyl]-3-ethylpyrazolo[1,5-a]pyridin-2-yl]-11-methyl-1,10,19-triazatricyclo[10.5.2.0^{15,18}]nonadeca-12(19),13,15(18),16-tetraen-9-one] showed an IC50 of 45 nM. `COc1cc(C(=O)N2[C@H]3CC[C@@H]2[C@H](N)C3)cc2nc(-c3cc4ccc5nc4n3CCCCCCC(C)(C)C(=O)N[C@@H]5C)n(C3CC3)c12` [Example 253, (11~{R})-17-[5-[(1~{R},2~{R},4~{S})-2-amino-7-azabicyclo[2.2.1]heptane-7-carbonyl]-1-cyclopropyl-7-methoxy-benzimidazol-2-yl]-8,8,11-trimethyl-1,10,19-triazatricyclo[10.5.2.0^{15,18}]nonadeca-12(19),13,15(18),16-tetraen-9-one] showed an IC50 of 103 nM. `COc1cc(C(=O)N2[C@H]3CC[C@@H]2[C@H](N)C3)cc2nc(-c3cc4ccc5nc4n3CCCCCCC(=O)N[C@@H]5C)n(C3CC3)c12` [Example 254, (10~{R})-16-[5-[(1~{R},2~{R},4~{S})-2-amino-7-azabicyclo[2.2.1]heptane-7-carbonyl]-1-cyclopropyl-7-methoxy-benzimidazol-2-yl]-10-methyl-1,9,18-triazatricyclo[9.5.2.0^{14,17}]octadeca-11(18),12,14(17),15-tetraen-8-one] gave an IC50 of 32 nM. With `COc1cc(C(=O)N2[C@H]3CC[C@@H]2[C@H](N)C3)cc2nc(-c3cc4ccc5nc4n3CCCCCCCC(=O)NC5)n(C)c12` [Example 255, 17-[5-[(1~{R},2~{R},4~{S})-2-amino-7-azabicyclo[2.2.1]heptane-7-carbonyl]-7-methoxy-1-methyl-benzimidazol-2-yl]-1,10,19-triazatricyclo[10.5.2.0^{15,18}]nonadeca-12(19),13,15(18),16-tetraen-9-one] the IC50 was 59 nM. With `COc1cc(C(=O)N2[C@H]3CC[C@@H]2[C@H](N)C3)cc2nc(-c3cc4ccc5nc4n3CCCCCCCC(=O)N(C)C5)n(C)c12` [Example 256, 17-[5-[(1~{R},2~{R},4~{S})-2-amino-7-azabicyclo[2.2.1]heptane-7-carbonyl]-7-methoxy-1-methyl-benzimidazol-2-yl]-10-methyl-1,10,19-triazatricyclo[10.5.2.0^{15,18}]nonadeca-12(19),13,15(18),16-tetraen-9-one] the IC50 was 48 nM. Work on `COc1cc(C(=O)N2[C@H]3CC[C@@H]2[C@H](N)C3)cc2nc(-c3cc4ccc5nc4n3CCCCCCCC(=O)N[C@H]5C(F)(F)F)n(C)c12` [Example 257, (11~{R})-17-[5-[(1~{R},2~{R},4~{S})-2-amino-7-azabicyclo[2.2.1]heptane-7-carbonyl]-7-methoxy-1-methyl-benzimidazol-2-yl]-11-(trifluoromethyl)-1,10,19-triazatricyclo[10.5.2.0^{15,18}]nonadeca-12(19),13,15(18),16-tetraen-9-one] yielded an IC50 of 2470 nM. Work on `COc1cc(C(=O)N2[C@H]3CC[C@@H]2[C@H](N)C3)cc2nc(-c3cc4ccc5nc4n3CCCCCCCC(=O)N[C@@H]5C(F)(F)F)n(C)c12` [Example 258, (11~{S})-17-[5-[(1~{R},2~{R},4~{S})-2-amino-7-azabicyclo[2.2.1]heptane-7-carbonyl]-7-methoxy-1-methyl-benzimidazol-2-yl]-11-(trifluoromethyl)-1,10,19-triazatricyclo[10.5.2.0^{15,18}]nonadeca-12(19),13,15(18),16-tetraen-9-one] yielded an IC50 of 39 nM.
